From publication PMC10447463, “Data-mining unveils structure–property–activity correlation of viral infectivity enhancing self-assembling peptides” (Nature Communications, 2023) come the findings set out here.

The nature of data set [1]: Zeta-potential measurement. It counts as physicochemical. The note with it: for Zeta Pot. / mV: mean; for Zeta-pot. / mV: zeta potential of peptide, Fig S15 source data. The gist of the method:
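Aggregates: 1 mg/mL peptide, PBS pH 7.4, 1 d RT; dilute in KCl (1 mM, aq); measure mobility → zeta via Smoluchowski.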

Data set [2] is classed as physicochemical. The settings on record: STD prep.
Data set [3] has as its system HIV-1 infection of TZM-bl cells. In words: HIV-1 infectivity enhancement assay, β-galactosidase luminescence. It counts as cell-based. The settings on record: for Absolute Infectivity / RLU /s (Feb2021): unrounded values of the 1.3 µM column; for Log10 Inf. rel. to EF-C: log10 of HIV-1 infection of TZM-bl cells relative to EF-C, Fig S15 source data, asymmetric std dev errors.

[4] abbreviates: Feb2021, 1.3 µM value relative to virus only (0 µM).
[5] abbreviates: Feb2021, log10 of infectivity relative to EF-C.
Where [6] appears, read: Feb2021, n-fold infectivity relative to EF-C.
[7] abbreviates: Feb2021 run, infectivity n-fold relative to virus alone.
[8] abbreviates: Feb2021 run, log10 of infectivity relative to EF-C.
The mark [9] stands for this setting: Feb2021 run, n-fold infectivity relative to EF-C.
The mark [10] stands for this setting: infectivity class (low / medium / high) of each library peptide, main list in c1-c6, same classes repeated in sub-lists of sequences containing the hydrophobicity/charge patterns P+,H0,P+,H0,P0,H0,P0, P+,H0,P0,H0,P0,H0,P0, P+,H0,P0,H0.
Setting [11] is: infectivity class (low / medium / high) of the peptide in the sequence-pattern analysis, Fig. S22-A4, class limits not given.
Where [12] appears, read: Feb2021, Log10 of infectivity relative to EF-C.
Where [13] appears, read: Feb2021, n-fold enhancement relative to EF-C.

Like-named read-outs stand apart in the source and are kept apart here.

Take CKFKFQFNMW [KB14]: the “Zeta category ( +1 = if > 4 mV;-1 = if < -4 mV; 0 = -4mV to 4 mV)” value (from here on “Zeta category”) in data set [1] was 1 (+1 = if > 4 mV). The “Zeta Pot. / mV” value in data set [1] (Std Zeta in next column) and in data set [1] (Std in separate column) was 18.4 mV in each case. Moreover, the “Zeta-pot. / mV” value in data set [1] is reported as 18.4 mV. For the same substance, the “TEM: 1= fibrils, 0= aggregates (micelle), 0.5 = aggregates and fibrils, -1 = nothing obersved, STD prep” value (“TEM: 1= fibrils, 0= aggregates (micelle)” below) in data set [2] was 1. For the same substance, the “n-fold to virus (Feb2021)” value in data set [3] (setting [4]) and in data set [3] (setting [7]) was 40.34 throughout. Moreover, the “Log10 of Rel to EFC (Feb2021)” value in data set [3] (setting [5]) and in data set [3] (setting [8]) was -0.01766 each time. The “Rel-to EFC (Feb-2021)” value in data set [3] (setting [6]) and in data set [3] (setting [9]) was 0.9602 in each case. The “Absolute Infectivity / RLU /s (Feb2021)” value in data set [3] (Feb2021) stood at 21516.66667 RLU /s. Besides, the infectivity entry in data set [3] (setting [10]) and in data set [3] (setting [11]) was “high” in each case. In addition, the “Log10 Inf. rel. to EF-C” value in data set [3] is on record as -0.01766.
For the substance CKIKIQINMW [TM86], the “Zeta category” value in data set [1] and in data set [1] (category from zeta potential) was 1 (+1 = if > 4 mV) throughout. The “Zeta Pot. / mV” value in data set [1] (Std Zeta in next column) and in data set [1] (Std in separate column) was 18.3 mV each time. Further, the “Zeta-pot. / mV” value in data set [1] turned out to be 18.3 mV. For the same substance, in data set [2], the “TEM: 1= fibrils, 0= aggregates (micelle)” value was 1. Moreover, the “n-fold to virus (Feb2021)” value in data set [3] (setting [4]) and in data set [3] (setting [7]) was 54.4 throughout. Moreover, the “Log10 of Rel to EFC (Feb2021)” value in data set [3] (setting [12]) and in data set [3] (setting [8]) was 0.1122 throughout. Besides, the “Rel-to EFC (Feb-2021)” value in data set [3] (setting [13]), in data set [3] (setting [6]) and in data set [3] (setting [9]) was 1.295 in each case. Moreover, the “Absolute Infectivity / RLU /s (Feb2021)” value in data set [3] (Feb2021) was found to be 7253 RLU /s. In addition, the infectivity result in data set [3] (setting [10]) and in data set [3] (setting [11]) was “high” each time. Further, the “Log10 Inf. rel. to EF-C” value in data set [3] is 0.1122.
On to CKWKWQW [KB4], for which, in data set [1], the “Zeta category” value was 1 (+1 = if > 4 mV) and the “Zeta-pot. / mV” value was 14.7 mV. The “Zeta Pot. / mV” value in data set [1] (Std Zeta in next column) amounted to 14.7 mV. For the same substance, in data set [2], the “TEM: 1= fibrils, 0= aggregates (micelle)” value worked out at 0. Also, the “n-fold to virus (Feb2021)” value in data set [3] (setting [4]) was found to be 10.67. Besides, the “Log10 of Rel to EFC (Feb2021)” value in data set [3] (setting [5]) is given as -0.5951. The “Rel-to EFC (Feb-2021)” value in data set [3] (setting [6]) is 0.254. In addition, in data set [3] (Feb2021), the “Absolute Infectivity / RLU /s (Feb2021)” value amounted to 6760 RLU /s. Also, in data set [3] (Fig S8 panels B, D, infectivity enhancement relative to EF-C), the “Rel-to EFC” value was 0.254. Besides, the n-fold to virus in data set [3] (Fig S8 panels B, D, infectivity n-fold relative to virus alone) stood at 10.67. For the same substance, the infectivity entry in data set [3] (setting [10]) was “medium”. In data set [3], the “Log10 Inf. rel. to EF-C” value is given as -0.5951.
As for CKYKYQY [KB2], in data set [1], the “Zeta category” value is listed as 0 (0 = -4mV to 4 mV) and the “Zeta-pot. / mV” value is 1.49 mV. Also, the “Zeta Pot. / mV” value in data set [1] (Std Zeta in next column) is on record as 1.49 mV. Besides, the “TEM: 1= fibrils, 0= aggregates (micelle)” value in data set [2] is reported as 0. In addition, the “n-fold to virus (Feb2021)” value in data set [3] (setting [4]) stood at 1.711. In addition, in data set [3] (setting [5]), the “Log10 of Rel to EFC (Feb2021)” value is recorded as -1.39. Moreover, the “Rel-to EFC (Feb-2021)” value in data set [3] (setting [6]) was 0.04071. Also, in data set [3] (Feb2021), the “Absolute Infectivity / RLU /s (Feb2021)” value worked out at 1083 RLU /s. Also, the infectivity result in data set [3] (setting [10]) was “low”. In data set [3], the “Log10 Inf. rel. to EF-C” value is reported as -1.3903.
Take KIKIKIQINMWQ [VH9]: the “Zeta category” value in data set [1] (category from zeta potential) is 1 (+1 = if > 4 mV). The “Zeta Pot. / mV” value in data set [1] (Std Zeta in next column) came out at 13.1 mV. In addition, the “Zeta-pot. / mV” value in data set [1] is on record as 13.1 mV. Further, in data set [3] (setting [12]), the “Log10 of Rel to EFC (Feb2021)” value is reported as -0.1048. In addition, the “Rel-to EFC (Feb-2021)” value in data set [3] (setting [13]) is listed as 0.7855. The infectivity result in data set [3] (setting [10]) and in data set [3] (setting [11]) was “high” each time. For the same substance, the “Log10 Inf. rel. to EF-C” value in data set [3] is -0.1048.
